From patent US6184238A, “N-hydroxyurea derivative and pharmaceutical composition containing the same” (Nikken Chemicals Co., Ltd., priority 1996, dated 2001) come the findings set out here.

One data set addresses T1, Lipoxygenase (Rattus norvegicus, UniProt P12527).
T1 construct: Using rat polymorphonuclear leukocytes; endogenous in cells; host or cells: casein-elicited peritoneal polymorphonuclear leukocytes of male Wistar rats
T1 sequence (P12527 1-673): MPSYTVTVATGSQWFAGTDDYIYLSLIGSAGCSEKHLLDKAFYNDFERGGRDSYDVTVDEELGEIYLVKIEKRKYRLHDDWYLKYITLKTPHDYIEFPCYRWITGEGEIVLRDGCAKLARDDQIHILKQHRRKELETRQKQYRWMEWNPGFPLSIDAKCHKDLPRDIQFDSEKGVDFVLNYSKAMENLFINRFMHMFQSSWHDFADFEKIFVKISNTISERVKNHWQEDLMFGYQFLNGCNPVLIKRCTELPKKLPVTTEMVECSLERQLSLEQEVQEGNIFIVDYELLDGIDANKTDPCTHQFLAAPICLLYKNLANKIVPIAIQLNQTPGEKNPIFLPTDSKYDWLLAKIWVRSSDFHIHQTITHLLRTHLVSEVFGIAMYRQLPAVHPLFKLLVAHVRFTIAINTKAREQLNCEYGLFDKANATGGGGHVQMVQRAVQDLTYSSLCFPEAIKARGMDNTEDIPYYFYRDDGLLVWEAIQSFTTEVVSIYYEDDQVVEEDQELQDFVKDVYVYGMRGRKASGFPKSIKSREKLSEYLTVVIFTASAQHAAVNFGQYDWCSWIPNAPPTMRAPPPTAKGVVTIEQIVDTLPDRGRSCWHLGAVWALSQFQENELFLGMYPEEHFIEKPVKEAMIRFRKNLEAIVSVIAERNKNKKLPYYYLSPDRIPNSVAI
Description: Lipoxygenase inhibitory activity (leukotriene B4 production, rat polymorphonuclear leukocytes). Type of data set: cell-based. The procedure: (Test of Lipoxygenase Inhibitory Activity)
Using rat polymorphonuclear leukocytes, a test was conducted using as an indicator the amount of production of leukotriene B4. Wistar male rats (Japan Clea) were intraperitoneally administered with 12% sodium casein. After 16 hours, the peritoneal cavities were lavaged and the polymorphonuclear leukocytes were recovered. The polymorphonuclear leukocytes thus obtained were suspended in a phosphate buffer (137 mM NaCl, 3 mM KCl, 8 mM Na2 HPO4, 2 mM KH2 PO4) (2.5×10^5 cells/0.4 ml), then the test compound (final concentration 10^-5 M) was added and incubation performed for 10 minutes at 37° C. then a calcium solution (10 mM CaCl2, 0.86% NaCl) 0.1 ml was added and incubation performed for 5 minutes, then 1.25 μl of calcium ionophore (20 μm, A-23187) was added and the reaction started. Five minutes after the addition, 250 μl of methanol was added to stop the reaction. After the reaction was stopped, the result was centrifuged for 20 minutes (4° C., 3000 rpm), then the amount of leukotriene B4 in the supernatant was measured by the EIA method (Cayman Co. kit).
As the test compound, the same compounds as in Test Example 1 were used for the test.

The target of another data set is T2, Thromboxane synthase (Homo sapiens, UniProt P24557).
T2 construct: Human platelet microsomes were used; from tissue; host or cells: human platelet microsomes
T2 sequence (P24557 1-533): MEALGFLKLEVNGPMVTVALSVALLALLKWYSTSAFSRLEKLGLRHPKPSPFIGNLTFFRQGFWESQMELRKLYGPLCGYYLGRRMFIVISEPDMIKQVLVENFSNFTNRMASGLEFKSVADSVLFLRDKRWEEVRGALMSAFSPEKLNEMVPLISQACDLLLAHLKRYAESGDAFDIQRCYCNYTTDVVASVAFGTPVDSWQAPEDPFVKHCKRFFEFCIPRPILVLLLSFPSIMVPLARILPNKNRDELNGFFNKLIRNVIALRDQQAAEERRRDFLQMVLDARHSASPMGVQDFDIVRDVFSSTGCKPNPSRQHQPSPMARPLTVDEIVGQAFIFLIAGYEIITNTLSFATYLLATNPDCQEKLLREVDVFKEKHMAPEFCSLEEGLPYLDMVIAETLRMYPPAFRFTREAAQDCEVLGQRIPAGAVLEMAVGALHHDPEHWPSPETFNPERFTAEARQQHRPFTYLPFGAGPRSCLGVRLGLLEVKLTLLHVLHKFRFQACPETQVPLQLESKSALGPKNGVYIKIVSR
Description: Thromboxane synthase inhibitory activity (thromboxane B2 production, human platelet microsomes). Type of data set: biochemical. To be noted: prostaglandin H2 added, pH 7.5, read-out: TxSI IC50 (inhibition of thromboxane B2 production). The procedure:
(Test of Thromboxane synthase Inhibitory Activity)
Human platelet microsomes were used and a test performed using as an indicator the amount of production of the thromboxane A2 stable metabolite thromboxane B2. A buffer solution (20 mM tris-HCl buffer solution, 1 mM EDTA, pH 7.5) containing human platelet microsomes (50 μg protein/ ml) and the test compound (final concentration of 10^-6 M) was stirred, then incubated at 0° C. for 30 minutes, followed by adding prostaglandin H2 (100 ng/2 μl). This was made acidic to stop the reaction, then neutralized with 1M Tris-base, then centrifuged at 3000 rpm for 20 minutes. The amount of the thromboxane B2 in the supernatant was measured by the EIA method (Cayman Co. kit).
As the test compound, the compounds 1, 6, 10, 11, 18 to 21, 24 to 27, 35, 40, 41, 44, and 45 were used for the test.

A further data set has as its system Crj-ICR male mice. Description: Acute toxicity test. Type of data set: in vivo, mouse. Particulars: intraperitoneal, dosages of up to 1000 mg/kg, 7 days observation. The procedure:
Crj-ICR male mice (7 weeks old, five mice to a group) were used. The test compound (Compounds 9, 26, and 33) was suspended in 0.5% sodium carboxymethylcellulose and administered intraperitoneally at a ratio of 10 ml/kg. The survival of the animals was observed up until 7 days after administration.

For data set [1], the system named is Antigen-Induced Bronchoconstriction Model of Guinea Pig. Description: Antigen-induced bronchoconstriction model of guinea pig (Konzett-Rossler method). Type of data set: in vivo. To be noted: Cavia porcellus, 1 h; guinea pigs sensitized by ovalbumin; oral; one hour after administration; read-out: Suppression of respiratory constriction (ED50). The procedure: (Pharmacological Activity on Antigen-Induced Bronchoconstriction Model of Guinea Pig)
Guinea pigs sensitized by ovalbumin were used and orally administered with the test compound suspended in 5% gum arabic. The activity for inhibiting antigen-induced bronchoconstriction after one hour after administration was measured by the Konzett-Rossler method.
Each of the sensitized guinea pigs was anesthesized by 35 mg/kg pentobarbital, a cannula was inserted into the respiratory tract and connected to an artificial respirator, a cannula was inserted into the jugular vein, and treatment was performed by 5 mg/kg suxamethonium and […] mepyramine. Next, the guinea pig was inhaled a nebulized ovalbumin to cause bronchoconstriction and the activity in inhibiting bronchoconstriction was found from the ratio of the amount of overflow volume to the detector to the amount of air blown volume from the artificial respirator.
As the test compound, the Compounds 19, 26, and 33 were used. As the control, the thromboxane synthase inhibitor OKY-046 and the 5-lipoxygenaseinhibitor A-64077 were used.

Where [2] appears, read: rat polymorphonuclear leukocytes, calcium ionophore A-23187, 37° C., read-out: LTBI IC50 (inhibition of leukotriene B4 production).

Where two headings read alike, the source gives them in different places.

Take `NC(=O)N(O)CCCCCCCCn1c(-c2cccnc2)cc2ccccc21` [Compound 6, N-Hydroxy-N-[8-[1-[2-(3-pyridyl)indolyl]]octyl]urea]: the figures for the IC50 on Lipoxygenase (setting [2]) and at Thromboxane synthase were 10 nM and 0.7 nM, respectively.

`NC(=O)N(O)CCCCCCCCCCCCn1c(-c2cccnc2)cc2ccccc21` [Compound 1, N-Hydroxy-N-[12-[1-[2-(3-pyridyl)indolyl]]dodecyl]urea]: the IC50 (as a rule, the midpoint of a concentration-inhibition curve) at Lipoxygenase (setting [2]) was found to be 6 nM; on Thromboxane synthase, 3 nM.

On to `NC(=O)N(O)CCCCCCn1cc(Cc2cccnc2)c2ccccc21` [Compound 18, N-Hydroxy-N-[6-[1-[3-(3-pyridylmethyl)indolyl]]hexyl]urea], for which the IC50 at Lipoxygenase (setting [2]) was determined as 100 nM; at Thromboxane synthase it was 300 nM.

With `NC(=O)N(O)Cc1ccc(Cc2cn(Cc3cccnc3)c3ccccc23)cc1` [Compound 27, N-Hydroxy-N-[4-[3-[1-(3-pyridylmethyl)indolyl]]methylbenzyl]urea], the concentration for half-maximal inhibition (IC50) on Lipoxygenase (setting [2]) is 100 nM; at Thromboxane synthase it was 70 nM.

On to `Cc1c(-c2cccnc2)c2ccccc2n1CCN(O)C(N)=O` [Compound 20, N-Hydroxy-N-[2-[1-[2-methyl-3-(3-pyridyl)indolyl]]ethyl]urea], for which the half-inhibitory concentration (IC50) at Lipoxygenase (setting [2]) amounted to 1500 nM; at Thromboxane synthase it was 5 nM.

On to `NC(=O)N(O)CCCCCCn1c(-c2cccnc2)c(Cl)c2cc(Cl)ccc21` [Compound 9, N-[6-[1-[3,5-dichloro-2-(3-pyridyl)indolyl]]hexyl]-N-hydroxyurea], for which, in the data set with Crj-ICR male mice, the “Deaths (acute toxicity)” value is given as “no deaths”.

Take `Cc1c(-c2cccnc2)n(C)c2ccc(CN(O)C(N)=O)cc12` [Compound 35, N-[5-[1,3-Dimethyl-2-(3-pyridyl)indolyl]methyl]-N-hydroxyurea]: the IC50 is 2000 nM at Lipoxygenase (setting [2]) and 40 nM at Thromboxane synthase.

For `NC(=O)N(O)Cc1cn(Cc2cccnc2)c2ccccc12` [Compound 26, N-Hydroxy-N-[3-[1-(3-pyridylmethyl)indolyl]methyl]urea], the results for the IC50 against Lipoxygenase and on Thromboxane synthase were 3000 nM and 700 nM, respectively. For the same compound, the ED50 (commonly the dose at which the effect has come halfway, by size or by number of responders) in data set [1] turned out to be 75 mg/kg.

As to `NC(=O)N(O)CCCCCCCCCCn1c(-c2cccnc2)cc2ccccc21` [Compound 11, N-hydroxy-N-[10-[1-[2-(3-pyridyl)indolyl]]decyl]urea], the 50% inhibitory concentration (IC50) at Lipoxygenase (setting [2]) was found to be 9 nM; on Thromboxane synthase, 0.8 nM.

Take `Cn1c(-c2cccnc2)c(C=CCN(O)C(N)=O)c2ccccc21` [Compound 24, N-Hydroxy-N-[3-[3-[1-methyl-2-(3-pyridyl)indolyl]]-2-propenyl]urea]: the concentration for half-maximal inhibition (IC50) was 4000 nM at Lipoxygenase (setting [2]) and 40 nM on Thromboxane synthase.

On to `NC(=O)N(O)CCCCCCn1cc(-c2cccnc2)c2ccccc21` [Compound 21, N-Hydroxy-N-[6-[1-[3-(3-pyridyl)indolyl]]hexyl]urea], for which the half-maximal inhibitory concentration (IC50) on Lipoxygenase (setting [2]) was determined as 40 nM; at Thromboxane synthase, 15 nM.

For the compound `Cc1c(-c2cccnc2)n(CCCCCCN(O)C(N)=O)c2ccc(Cl)cc12` [Compound 10, N-[6-[1-[5-Chloro-3-methyl-2-(3-pyridyl)indolyl]]hexyl]-N-hydroxyurea], the concentration for half-maximal inhibition (IC50) was 30 nM on Lipoxygenase (setting [2]) and 0.7 nM at Thromboxane synthase.

As for `NC(=O)N(O)CCn1cc(-c2cccnc2)c2ccccc21` [Compound 19, N-Hydroxy-N-[2-[1-[3-(3-pyridyl)indolyl]]ethyl]urea], the half-maximal inhibitory concentration (IC50) at Lipoxygenase (setting [2]) was 300 nM; at Thromboxane synthase, 15 nM. The ED50 in data set [1] amounted to 30 mg/kg.

`CC(c1cc2ccccc2s1)N(O)C(N)=O` (stereo not shown) [Compound A-64077, reference compound]: the ED50 in data set [1] is 300 mg/kg.

As for `Cn1cc(-c2cccnc2)c2cc(CN(O)C(N)=O)ccc21` [Compound 40, N-Hydroxy-N-[5-[1-methyl-3-(3-pyridyl)indolyl]methyl]urea], the half-maximal inhibitory concentration (IC50) on Lipoxygenase (setting [2]) was found to be 700 nM; at Thromboxane synthase, 30 nM.

In the case of `Cc1c(-c2cccnc2)n(C)c2ccc(C(C)N(O)C(N)=O)cc12` (stereo not shown) [Compound 41, N-[1-[5-[1,3-Dimethyl-2-(3-pyridyl)indolyl]]ethyl]-N-hydroxyurea], the IC50 at Lipoxygenase (setting [2]) amounted to 2000 nM; at Thromboxane synthase, 70 nM.

`NC(=O)N(O)Cc1ccc2c(ccn2Cc2cccnc2)c1` [Compound 33, N-hydroxy-N-[5-[1-(3-pyridylmethyl)indolyl]methyl]urea]: in data set [1], the ED50 turned out to be 30 mg/kg.

For `CC(c1ccc2c(c1)c(-c1cccnc1)cn2C)N(O)C(N)=O` (stereo not shown) [Compound 45, N-Hydroxy-N-[1-[5-[1-methyl-3-(3-pyridyl)indolyl]]ethyl]urea], the 50% inhibitory concentration (IC50) worked out at 2500 nM at Lipoxygenase (setting [2]) and 60 nM at Thromboxane synthase.

Regarding `O=C(O)/C=C/c1ccc(Cn2ccnc2)cc1` [OKY-046, reference compound], in data set [1], the ED50 amounted to 260 mg/kg.

Turning to `NC(=O)N(O)CC=Cc1cn(Cc2cccnc2)c2ccccc12` [Compound 25, N-hydroxy-N-[3-[3-[1-(3-pyridylmethyl)indolyl]]-2-propenyl]urea], the half-maximal inhibitory concentration (IC50) worked out at 200 nM on Lipoxygenase (setting [2]) and 150 nM at Thromboxane synthase.

For the compound `Cc1c(-c2cccnc2)n(C)c2ccc(C#CC(C)N(O)C(N)=O)cc12` (stereo not shown) [Compound 44, N-[2-[4-[5-[1,3-dimethyl-2-(3-pyridyl)indolyl]]-3-butynyl]]-N-hydroxyurea], the 50% inhibitory concentration (IC50) amounted to 600 nM at Lipoxygenase (setting [2]) and 30 nM at Thromboxane synthase.
